# Test system: COVID-19 pulmonary involvement
compound,measurement,setting,value
CC[C@H](C)[C@H](NC(=O)[C@H](CO)NC(=O)[C@H](CC(N)=O)NC(=O)[C@H](CC(C)C)NC(=O)[C@H](Cc1ccc(O)cc1)NC(=O)[C@H](CCCCN)NC(=O)[C@H](CCCCN)NC(=O)[C@@H](NC(=O)[C@H](C)NC(=O)[C@H](CCSC)NC(=O)[C@H](CCC(N)=O)NC(=O)[C@H](CCCCN)NC(=O)[C@H](CCCNC(=N)N)NC(=O)[C@H](CC(C)C)NC(=O)[C@H](CCCNC(=N)N)NC(=O)[C@@H](NC(=O)[C@H](Cc1ccc(O)cc1)NC(=O)[C@H](CC(N)=O)NC(=O)[C@H](CC(=O)O)NC(=O)[C@@H](NC(=O)[C@H](Cc1ccccc1)NC(=O)[C@@H](NC(=O)[C@H](C)NC(=O)[C@H](CC(=O)O)NC(=O)[C@H](CO)NC(=O)[C@@H](N)Cc1c[nH]cn1)C(C)C)[C@@H](C)O)[C@@H](C)O)C(C)C)C(=O)N[C@@H](CC(C)C)C(=O)N[C@@H](CC(N)=O)C(N)=O [Aviptadil],Entering Intensive Care (%),"Age >=60, treatment group",25%
same,Tolerability,"human, in vivo",well tolerated
